Results reported in US4837226A, “Polycyclic amine derivatives useful as cerebrovascular agents” (Warner-Lambert Company, priority 1988, dated 1989).

How the values were obtained:
[1] = tested on: cultured rat cortical neurons; test: Inhibition of hypoxia induced [45Ca] influx (HCI) into cultured rat cortical neurons; assay type: cell-based; conditions: for IC50: Cortical neurone, cultured rat cortical neurons, 95% N2/5% CO2, 37° C., 4 hours; for inhibition of hypoxia induced calcium influx (in words): conclusion from Table IV
Description: (§1) The ability of the compounds of the instant invention to inhibit the glutamate and hypoxia stimulated influx of calcium into cultured rat cortical neurons is shown in Table III and Table IV respectively. The methodology for determining the ability of the compounds of the instant invention to inhibit the glutamate stimulated calcium influx (GCI) into cultured rat cortical neurons is to be found in: A. W. Probert and F. W. Marcoux, Soc. Neurosci. Abstr., 13, Part II, 754, (1987). Using a similar culture system, the ability of the compounds of the instant invention to inhibit the hypoxia stimulated influx of calcium (HCI) was determined by incubating cultured cells in an atmosphere of nitrogen (95%) and CO2 (5%) at 37° C. for a period of 4 hours. Calcium influx was determined by subtraction of the stimulated influx in the presence of tetrodotoxin (3 μM) and magnesium (10 mM) from that found in the absence (control) and in the presence of the test substance.

[2] = biological target: phencyclidene (PCP) receptors; test: [3H]TCP receptor binding (RBS1), rat brain cortex membranes; conditions: for IC50: [3H]TCP, rat brain cortex membranes, read-out: Inhibition of [^3 H]TCP Receptor Binding, RBS1 IC50; for inhibition of [^3 H]TCP receptor binding (in words): conclusion from Table II; for potency compared with TCP and MK-801 (in words): comparison from Table II
Method: Tritiated TCP binding, designated RBS1, was carried out essentially as described in J. Pharmacol. Exp. Ther., 238, 739-748 (1986).

[3] = tested on: cultured rat cortical neurons; test: Inhibition of glutamate stimulated [45Ca] influx (GCI) into cultured rat cortical neurons; assay type: cell-based; conditions: for IC50: Cortical neurone, cultured rat cortical neurons, glutamate stimulated; for inhibition of glutamate stimulated influx of calcium (in words): conclusion from Table III
Description: as §1

SMILES	IC50 [1] [nM]	inhibition of hypoxia induced calcium influx (in words) [1]	IC50 [2] [nM]	inhibition of [^3 H]TCP receptor binding (in words) [2]	IC50 [3] [nM]	inhibition of glutamate stimulated influx of calcium (in words) [3]	potency compared with TCP and MK-801 (in words) [2]
COCCCNC12CCCCC1Cc1ccccc12 (centres unmarked) [Example 8, 1,2,3,4,9,9a-hexahydro-N-(3-methoxypropyl)-4aH-fluoren-4a-amine]	43	potent inhibitors	102	potent inhibitors	1900	inhibit the glutamate stimulated influx of calcium	–
CCNC12CCCCC1Oc1ccccc12 (centres unmarked) [Example 27, N-ethyl-6,7,8,9-tetrahydro-9a(5aH)-dibenzofuranamine]	124	potent inhibitors	141	potent inhibitors	1800	inhibit the glutamate stimulated influx of calcium	–
CNC12CCCCC1Cc1ccccc12 (centres unmarked) [Example 2, 1,2,3,4,9,9a-hexahydro-N-methyl-4aH-fluoren-4a-amine]	5	potent inhibitors	15	potent inhibitors	304	inhibit the glutamate stimulated influx of calcium	potency comparable to both TCP and MK-801
c1ccc(C2(N3CCCCC3)CCCCC2)cc1 [PCP, phencyclidene, reference compound]	45	–	40	–	160	–	–
CNC12CCCCC1Sc1ccccc12 (centres unmarked) [Example 30, 6,7,8,9-tetrahydro-N-methyl-9a(5aH)-dibenzothiophenamine]	200	potent inhibitors	10	potent inhibitors	260	inhibit the glutamate stimulated influx of calcium	potency comparable to both TCP and MK-801
C[C@]12N[C@H](Cc3ccccc31)c1ccccc12 [MK-801, reference compound]	34	–	–	–	51	–	–
CNC12CC(C)CCC1Cc1ccccc12 (centres unmarked) [Example 12, 1,2,3,4,9,9a-hexahydro-3-methyl-N-methyl-(4aH)-fluoren-4a-amine]	95	potent inhibitors	95	potent inhibitors	1900	inhibit the glutamate stimulated influx of calcium	–
CNC1(c2ccccc2Cl)CCCCC1=O (centres unmarked) [ketamine, reference compound]	1900	–	–	–	5500	–	–
NC12CCCCC1Cc1ccccc12 (centres unmarked) [Example 1, 1,2,3,4,9,9a-hexahydro-4aH-fluoren-4a-amine]	167	potent inhibitors	27	potent inhibitors	–	–	potency comparable to both TCP and MK-801
